The record followed here is ChEMBL document CHEMBL3991601, “The target landscape of clinical kinase drugs” (Science, 2017).

The target in test [1] is T1, Phosphorylase b kinase gamma catalytic chain, liver/testis isoform (Homo sapiens, UniProt P15735).
T1 sequence (P15735 whole entry): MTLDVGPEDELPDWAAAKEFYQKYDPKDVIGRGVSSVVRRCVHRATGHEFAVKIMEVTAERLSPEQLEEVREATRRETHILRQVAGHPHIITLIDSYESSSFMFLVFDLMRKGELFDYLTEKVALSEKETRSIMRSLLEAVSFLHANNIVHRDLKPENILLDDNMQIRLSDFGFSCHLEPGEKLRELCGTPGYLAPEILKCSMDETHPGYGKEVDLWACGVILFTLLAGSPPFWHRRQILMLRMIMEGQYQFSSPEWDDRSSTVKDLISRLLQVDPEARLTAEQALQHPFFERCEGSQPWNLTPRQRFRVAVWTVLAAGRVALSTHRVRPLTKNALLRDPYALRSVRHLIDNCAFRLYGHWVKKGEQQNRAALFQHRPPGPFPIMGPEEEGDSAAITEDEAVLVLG

Test [2] deals with DNA topoisomerase 2-alpha (Homo sapiens, UniProt P11388).
Chain of DNA topoisomerase 2-alpha (P11388 whole entry): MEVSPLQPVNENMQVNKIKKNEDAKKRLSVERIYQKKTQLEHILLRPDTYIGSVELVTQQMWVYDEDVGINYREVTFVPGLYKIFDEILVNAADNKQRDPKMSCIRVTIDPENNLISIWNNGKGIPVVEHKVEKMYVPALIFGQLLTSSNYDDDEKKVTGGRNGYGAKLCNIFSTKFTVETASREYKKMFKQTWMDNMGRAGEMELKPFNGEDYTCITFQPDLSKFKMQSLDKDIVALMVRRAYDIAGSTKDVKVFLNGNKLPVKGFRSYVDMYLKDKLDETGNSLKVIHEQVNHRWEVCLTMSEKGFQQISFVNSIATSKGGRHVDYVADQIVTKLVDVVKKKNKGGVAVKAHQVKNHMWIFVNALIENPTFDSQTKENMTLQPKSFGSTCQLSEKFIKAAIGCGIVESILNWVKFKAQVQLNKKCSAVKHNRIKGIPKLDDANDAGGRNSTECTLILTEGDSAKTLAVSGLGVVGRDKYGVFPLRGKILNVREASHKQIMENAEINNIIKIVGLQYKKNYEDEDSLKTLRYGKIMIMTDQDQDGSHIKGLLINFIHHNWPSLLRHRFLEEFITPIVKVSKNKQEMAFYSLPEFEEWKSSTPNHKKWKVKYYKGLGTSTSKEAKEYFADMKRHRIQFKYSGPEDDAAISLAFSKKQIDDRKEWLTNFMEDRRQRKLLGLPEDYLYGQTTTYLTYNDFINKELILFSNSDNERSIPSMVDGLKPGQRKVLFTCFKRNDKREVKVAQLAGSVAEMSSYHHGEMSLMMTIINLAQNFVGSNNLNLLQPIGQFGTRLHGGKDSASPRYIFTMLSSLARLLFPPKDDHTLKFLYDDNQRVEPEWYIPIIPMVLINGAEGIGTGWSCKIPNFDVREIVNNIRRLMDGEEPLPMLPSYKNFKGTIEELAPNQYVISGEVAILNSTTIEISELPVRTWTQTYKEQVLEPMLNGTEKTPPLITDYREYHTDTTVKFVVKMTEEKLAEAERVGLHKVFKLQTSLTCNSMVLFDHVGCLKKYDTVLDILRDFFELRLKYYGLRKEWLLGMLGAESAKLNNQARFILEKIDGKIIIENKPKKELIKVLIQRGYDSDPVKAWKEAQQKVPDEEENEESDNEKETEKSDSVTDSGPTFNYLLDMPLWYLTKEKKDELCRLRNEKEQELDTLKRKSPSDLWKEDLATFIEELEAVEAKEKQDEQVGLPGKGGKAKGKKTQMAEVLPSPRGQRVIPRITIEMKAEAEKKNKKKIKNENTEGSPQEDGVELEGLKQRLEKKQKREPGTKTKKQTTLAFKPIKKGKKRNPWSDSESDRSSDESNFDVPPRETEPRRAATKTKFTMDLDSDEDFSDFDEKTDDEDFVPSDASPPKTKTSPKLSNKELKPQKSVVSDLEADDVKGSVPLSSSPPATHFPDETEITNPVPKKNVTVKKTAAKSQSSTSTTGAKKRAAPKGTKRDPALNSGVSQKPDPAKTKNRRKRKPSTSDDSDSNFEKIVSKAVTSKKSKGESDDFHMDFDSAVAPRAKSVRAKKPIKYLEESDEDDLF
For test [3], the target named is Fibroblast growth factor receptor 1 (Homo sapiens, UniProt P11362).
Chain of Fibroblast growth factor receptor 1 (P11362 whole entry): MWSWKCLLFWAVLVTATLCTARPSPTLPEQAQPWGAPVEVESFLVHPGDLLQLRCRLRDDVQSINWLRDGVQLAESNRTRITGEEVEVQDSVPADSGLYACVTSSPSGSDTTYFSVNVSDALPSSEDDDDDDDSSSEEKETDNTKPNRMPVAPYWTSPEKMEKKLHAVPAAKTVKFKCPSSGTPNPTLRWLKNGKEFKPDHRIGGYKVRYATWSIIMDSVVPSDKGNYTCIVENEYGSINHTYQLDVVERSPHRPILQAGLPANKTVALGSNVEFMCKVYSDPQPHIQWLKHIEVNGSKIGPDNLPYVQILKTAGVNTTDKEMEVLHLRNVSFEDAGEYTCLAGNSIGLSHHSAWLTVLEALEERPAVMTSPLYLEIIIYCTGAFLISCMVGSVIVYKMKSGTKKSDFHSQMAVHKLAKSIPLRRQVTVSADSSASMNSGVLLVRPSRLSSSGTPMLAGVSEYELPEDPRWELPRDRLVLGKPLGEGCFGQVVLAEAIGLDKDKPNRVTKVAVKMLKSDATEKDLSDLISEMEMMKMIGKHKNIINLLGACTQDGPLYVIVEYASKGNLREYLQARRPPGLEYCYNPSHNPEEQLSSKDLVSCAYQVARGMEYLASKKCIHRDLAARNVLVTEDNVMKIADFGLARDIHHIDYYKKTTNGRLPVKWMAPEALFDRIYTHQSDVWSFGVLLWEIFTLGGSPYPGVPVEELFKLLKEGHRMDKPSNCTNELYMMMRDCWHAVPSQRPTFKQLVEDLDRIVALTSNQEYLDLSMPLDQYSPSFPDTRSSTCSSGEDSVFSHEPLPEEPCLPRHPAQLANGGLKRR
The target of test [4] is Ribosomal protein S6 kinase beta-1 (Homo sapiens, UniProt P23443).
Chain of Ribosomal protein S6 kinase beta-1 (P23443 whole entry, the tested form may be a part): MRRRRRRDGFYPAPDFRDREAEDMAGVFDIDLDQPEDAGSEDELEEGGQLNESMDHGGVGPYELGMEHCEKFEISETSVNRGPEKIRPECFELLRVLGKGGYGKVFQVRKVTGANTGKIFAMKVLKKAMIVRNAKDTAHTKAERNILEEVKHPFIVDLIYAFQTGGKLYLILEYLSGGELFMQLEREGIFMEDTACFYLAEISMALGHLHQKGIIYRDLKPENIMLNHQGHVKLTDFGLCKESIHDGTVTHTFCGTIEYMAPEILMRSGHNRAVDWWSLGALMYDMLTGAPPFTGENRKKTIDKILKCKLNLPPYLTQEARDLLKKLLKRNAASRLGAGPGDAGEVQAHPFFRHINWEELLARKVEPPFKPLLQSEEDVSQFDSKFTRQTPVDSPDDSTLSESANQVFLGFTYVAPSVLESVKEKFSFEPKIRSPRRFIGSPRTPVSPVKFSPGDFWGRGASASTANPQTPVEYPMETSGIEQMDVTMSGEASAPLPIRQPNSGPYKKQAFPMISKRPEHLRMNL
Test [5] has as its target T2, AarF domain-containing protein kinase 1 (Homo sapiens, UniProt Q86TW2).
T2 sequence (Q86TW2 whole entry): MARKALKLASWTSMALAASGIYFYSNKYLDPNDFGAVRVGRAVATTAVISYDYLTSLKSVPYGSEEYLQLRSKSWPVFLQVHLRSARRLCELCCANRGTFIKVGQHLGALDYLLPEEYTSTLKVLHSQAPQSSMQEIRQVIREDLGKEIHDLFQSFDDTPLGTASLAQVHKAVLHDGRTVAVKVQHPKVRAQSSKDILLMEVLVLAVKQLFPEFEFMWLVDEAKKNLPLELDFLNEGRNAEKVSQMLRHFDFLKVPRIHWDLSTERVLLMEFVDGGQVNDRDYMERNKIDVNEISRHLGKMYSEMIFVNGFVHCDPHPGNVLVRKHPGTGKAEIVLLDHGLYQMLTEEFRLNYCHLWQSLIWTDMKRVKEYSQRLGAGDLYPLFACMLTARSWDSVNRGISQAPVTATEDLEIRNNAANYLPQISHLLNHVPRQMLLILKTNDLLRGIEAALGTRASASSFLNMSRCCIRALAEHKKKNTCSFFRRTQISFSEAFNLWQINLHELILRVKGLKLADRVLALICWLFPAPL

In test [6] the target is Casein kinase I isoform alpha (Homo sapiens, UniProt P48729).
Chain of Casein kinase I isoform alpha (P48729 whole entry, canonical isoform): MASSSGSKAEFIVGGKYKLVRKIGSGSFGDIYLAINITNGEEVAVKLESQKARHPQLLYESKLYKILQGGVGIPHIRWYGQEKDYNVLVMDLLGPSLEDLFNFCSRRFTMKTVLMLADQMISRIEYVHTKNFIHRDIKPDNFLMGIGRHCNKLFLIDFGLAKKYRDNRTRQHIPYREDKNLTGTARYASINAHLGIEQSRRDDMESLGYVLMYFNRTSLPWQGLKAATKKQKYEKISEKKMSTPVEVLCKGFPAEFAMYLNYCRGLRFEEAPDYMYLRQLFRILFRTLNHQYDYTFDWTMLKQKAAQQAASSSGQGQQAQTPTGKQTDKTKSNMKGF
Test [7] addresses Cyclin-dependent kinase 3 (Homo sapiens, UniProt Q00526).
A further test has as its target T3, Ephrin type-A receptor 1 (Homo sapiens, UniProt P21709).
T3 sequence (P21709 whole entry): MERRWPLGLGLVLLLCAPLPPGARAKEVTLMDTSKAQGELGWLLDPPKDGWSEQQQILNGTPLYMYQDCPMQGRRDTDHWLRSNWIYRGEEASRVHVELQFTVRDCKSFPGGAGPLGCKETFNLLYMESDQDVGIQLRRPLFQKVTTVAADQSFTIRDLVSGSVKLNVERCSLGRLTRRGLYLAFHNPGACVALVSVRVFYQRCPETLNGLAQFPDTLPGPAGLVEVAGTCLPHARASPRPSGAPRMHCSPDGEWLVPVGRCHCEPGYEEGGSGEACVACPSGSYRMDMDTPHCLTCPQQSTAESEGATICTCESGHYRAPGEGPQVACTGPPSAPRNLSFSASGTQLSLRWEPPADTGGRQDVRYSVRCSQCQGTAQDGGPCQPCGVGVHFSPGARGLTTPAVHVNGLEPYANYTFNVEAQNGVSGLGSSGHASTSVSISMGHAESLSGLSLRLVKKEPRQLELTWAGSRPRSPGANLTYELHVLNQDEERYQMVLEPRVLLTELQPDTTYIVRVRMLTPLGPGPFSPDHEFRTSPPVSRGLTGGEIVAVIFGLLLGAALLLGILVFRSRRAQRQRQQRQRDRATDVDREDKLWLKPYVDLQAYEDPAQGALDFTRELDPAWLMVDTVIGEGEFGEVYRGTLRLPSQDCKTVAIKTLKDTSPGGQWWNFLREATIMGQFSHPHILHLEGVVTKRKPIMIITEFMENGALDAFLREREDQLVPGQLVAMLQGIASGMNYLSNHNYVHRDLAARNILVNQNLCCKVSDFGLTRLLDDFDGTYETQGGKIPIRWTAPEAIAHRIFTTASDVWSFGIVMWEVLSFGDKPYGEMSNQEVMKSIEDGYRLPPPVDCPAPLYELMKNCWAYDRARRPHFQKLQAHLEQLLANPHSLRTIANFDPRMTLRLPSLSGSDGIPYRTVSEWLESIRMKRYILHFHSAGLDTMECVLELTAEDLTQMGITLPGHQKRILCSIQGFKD

Calls of active or inactive are those of the source. Rule as the data show it, for most assays here: actives have a measured Kd and inactives only a lower limit.
Also: in the data inactive means no Kd found up to 30 µM.

Chain of Cyclin-dependent kinase 3 (Q00526 whole entry): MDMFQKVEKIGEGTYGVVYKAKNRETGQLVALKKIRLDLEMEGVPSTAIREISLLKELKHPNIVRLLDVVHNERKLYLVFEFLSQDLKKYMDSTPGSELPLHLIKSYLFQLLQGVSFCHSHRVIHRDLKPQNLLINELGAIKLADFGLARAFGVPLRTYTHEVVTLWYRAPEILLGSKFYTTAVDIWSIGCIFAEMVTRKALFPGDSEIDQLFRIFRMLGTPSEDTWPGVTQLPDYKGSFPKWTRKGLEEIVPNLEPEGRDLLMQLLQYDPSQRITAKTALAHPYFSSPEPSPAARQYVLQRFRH

Usually Kd stands for the free concentration of one partner at which half of the binding sites on the other are occupied at equilibrium, for simple one-to-one binding. On to `CNC(=O)c1cccc2cc(Oc3ccnc4cc(OCC5(N)CC5)c(OC)cc34)ccc12` [LUCITANIB], for which the Kd in test [1], in test [2], in test [3], in test [4], in test [5] and in test [6] was > 30 µM (inactive) throughout. Also, the Kd (in test [7]; on Ephrin type-A receptor 1) was > 30 µM (inactive) each time.

On to `NC1(c2ccc(-c3nc4ccn5c(=O)[nH]nc5c4cc3-c3ccccc3)cc2)CCC1` [MK-2206], for which the Kd in test [1], in test [2], in test [3], in test [4], in test [5] and in test [6] was > 30 µM (inactive) throughout. The Kd (in test [7]; on Ephrin type-A receptor 1) was > 30 µM (inactive) each time.

With `CN(C[C@@H]1COCCO1)S(=O)(=O)Nc1ccc2ccc3ncc(-c4cnn(C)c4)cc3c(=O)c2c1` [MK-2461], the Kd in test [1], in test [2], in test [3], in test [4], in test [5] and in test [6] was > 30 µM (inactive) throughout. The Kd (in test [7]; on Ephrin type-A receptor 1) was > 30 µM (inactive) throughout.

Regarding `FC(F)(F)c1ccc(/C=C/c2nc(COc3ccc(CCCCn4ccnn4)cc3)co2)cc1` [MUBRITINIB], the Kd in test [1], in test [2], in test [3], in test [4], in test [5] and in test [6] was > 30 µM (inactive) each time. Further, the Kd (in test [7]; on Ephrin type-A receptor 1) was > 30 µM (inactive) throughout.

For `CCOc1cc2ncc(C#N)c(Nc3ccc(F)c(Cl)c3)c2cc1NC(=O)/C=C/CN(C)C` [PELITINIB], the Kd in test [1], in test [2], in test [3], in test [4], in test [5] and in test [6] was > 30 µM (inactive) each time. In addition, the Kd (in test [7]; at Ephrin type-A receptor 1) was > 30 µM (inactive) each time.

As to `Cc1cnc(NC(=O)Nc2cc(Br)c(C)cc2OC[C@@H]2CNCCO2)cn1` [RABUSERTIB], the Kd in test [1], in test [2], in test [3], in test [4], in test [5] and in test [6] was > 30 µM (inactive) throughout. Moreover, the Kd (in test [7]; on Ephrin type-A receptor 1) was > 30 µM (inactive) in each case.

Regarding `CO[C@H]1C[C@@H]2CC[C@@H](C)[C@@](O)(O2)C(=O)C(=O)N2CCCC[C@H]2C(=O)O[C@H]([C@H](C)C[C@@H]2CC[C@@H](OP(C)(C)=O)[C@H](OC)C2)CC(=O)[C@H](C)/C=C(\C)[C@@H](O)[C@@H](OC)C(=O)[C@H](C)C[C@H](C)/C=C/C=C/C=C/1C` [RIDAFOROLIMUS], the Kd in test [1], in test [2], in test [3], in test [4], in test [5] and in test [6] was > 30 µM (inactive) each time. Further, the Kd (in test [7]; at Ephrin type-A receptor 1) was > 30 µM (inactive) throughout.

For the compound `O=c1[nH]ccc2cc(OC3CCNCC3)ccc12` [SAR-407899 FREE BASE], the Kd in test [1], in test [2], in test [3], in test [4], in test [5] and in test [6] was > 30 µM (inactive) throughout. Besides, the Kd (in test [7]; at Ephrin type-A receptor 1) was > 30 µM (inactive) throughout.

As to `CO[C@H]1C[C@@H]2CC[C@@H](C)[C@@](O)(O2)C(=O)C(=O)N2CCCC[C@H]2C(=O)O[C@H]([C@H](C)C[C@@H]2CC[C@@H](OC(=O)C(C)(CO)CO)[C@H](OC)C2)CC(=O)[C@H](C)/C=C(\C)[C@@H](O)[C@@H](OC)C(=O)[C@H](C)C[C@H](C)/C=C/C=C/C=C/1C` [TEMSIROLIMUS], the Kd in test [1], in test [2], in test [3], in test [4], in test [5] and in test [6] was > 30 µM (inactive) in each case. Moreover, the Kd (in test [7]; on Ephrin type-A receptor 1) was > 30 µM (inactive) each time.

Take `COc1cc2c(Nc3ccc(Cl)c(Cl)c3F)ncnc2cc1OC[C@@H]1C[C@@H]2CN(C)C[C@@H]2C1` [TESEVATINIB]: the Kd in test [1], in test [2], in test [3], in test [4], in test [5] and in test [6] was > 30 µM (inactive) in each case. In addition, the Kd in test [7] was > 30 µM (inactive); on Ephrin type-A receptor 1 it was 0.008 µM (active).

With `O=C(Cc1ccc(-c2ccc(OCCN3CCOCC3)cc2)cn1)NCc1ccccc1` [TIRBANIBULIN], the Kd in test [1], in test [2], in test [3], in test [4], in test [5] and in test [6] was > 30 µM (inactive) throughout. For the same compound, the Kd (in test [7]; on Ephrin type-A receptor 1) was > 30 µM (inactive) each time.

Take `C[C@@H](NC(=O)c1ncnc(N)c1Cl)c1ncc(C(=O)Nc2cc(C(F)(F)F)c(Cl)cn2)s1` [TOVORAFENIB]: the Kd in test [1], in test [2], in test [3], in test [4], in test [5] and in test [6] was > 30 µM (inactive) throughout. For the same compound, the Kd is > 30 µM (inactive) in test [7] and 1.07 µM on Ephrin type-A receptor 1.

As to `Cn1ncc(Cl)c1-c1cc(C(=O)N[C@H](CN)Cc2ccc(F)c(F)c2)oc1Cl` [UPROSERTIB], the Kd was > 30 µM (inactive) in test [1]; > 30 µM (inactive) in test [2]; > 30 µM (inactive) in test [3]; > 30 µM (inactive) in test [4]; > 30 µM (inactive) in test [5]; 1.68 µM (active) in test [6]. For the same compound, the Kd (in test [7]; at Ephrin type-A receptor 1) was > 30 µM (inactive) in each case.

On to `CC(C)c1cc(CNc2nc(Nc3cc(C4CC4)[nH]n3)cc(N3CCN(C)CC3)n2)on1` [XL-228], for which the Kd was 2.41 µM (active) in test [1]; > 30 µM (inactive) in test [2]; 0.009 µM (active) in test [3]; > 30 µM (inactive) in test [4]; > 30 µM (inactive) in test [5]; > 30 µM (inactive) in test [6]. Further, the figures for the dissociation constant Kd (in test [7]; on Ephrin type-A receptor 1) were 0.429 µM and 0.005 µM (active), respectively.
